In ChEMBL document CHEMBL5550126, “Identification of naphthalimide-derivatives as novel PBD-targeted polo-like kinase 1 inhibitors with efficacy in drug-resistant lung cancer cells” (Eur J Med Chem, 2024):

Assays:
[1] = test system: SK-OV-3; test: Anticancer activity against human SK-OV-3 cells assessed as inhibition of cell growth incubated for 48 hrs by crystal violet staining based analysis; assay type: functional; details: SK-OV-3, 48 h
[2] = test system: NCI-H460; test: Anticancer activity against human NCI-H460 cells assessed as inhibition of cell growth incubated for 48 hrs by crystal violet staining based analysis; assay type: functional; details: NCI-H460, 48 h
[3] = molecular target: Serine/threonine-protein kinase PLK1 (Homo sapiens, UniProt P53350); test: Binding affinity to recombinant PLK1 (unknown origin) assessed as dissociation constant by SPR analysis
Sequence of Serine/threonine-protein kinase PLK1 (P53350 whole entry): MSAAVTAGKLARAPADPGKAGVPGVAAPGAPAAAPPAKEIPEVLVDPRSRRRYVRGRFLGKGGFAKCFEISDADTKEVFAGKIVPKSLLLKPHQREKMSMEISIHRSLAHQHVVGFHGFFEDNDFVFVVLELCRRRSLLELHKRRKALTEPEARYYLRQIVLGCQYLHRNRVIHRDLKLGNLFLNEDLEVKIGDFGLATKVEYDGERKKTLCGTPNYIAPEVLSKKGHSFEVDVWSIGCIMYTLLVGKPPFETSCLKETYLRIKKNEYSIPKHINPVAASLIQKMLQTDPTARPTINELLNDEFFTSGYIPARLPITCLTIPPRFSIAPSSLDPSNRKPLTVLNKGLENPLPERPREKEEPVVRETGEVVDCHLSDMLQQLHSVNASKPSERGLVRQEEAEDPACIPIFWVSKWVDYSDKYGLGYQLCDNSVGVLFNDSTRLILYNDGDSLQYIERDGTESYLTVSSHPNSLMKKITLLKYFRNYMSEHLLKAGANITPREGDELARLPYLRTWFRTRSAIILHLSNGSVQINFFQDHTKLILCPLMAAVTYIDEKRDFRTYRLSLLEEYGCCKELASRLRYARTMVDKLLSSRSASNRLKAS

[4] = test system: T-24; test: Anticancer activity against human T24 cells assessed as inhibition of cell growth incubated for 48 hrs by crystal violet staining based analysis; assay type: functional; details: T-24, 48 h
[5] = test system: MGC-803; test: Anticancer activity against human MGC-803 cells assessed as inhibition of cell growth incubated for 48 hrs by crystal violet staining based analysis; assay type: functional; details: MGC-803, 48 h
[6] = test system: MCF7; test: Anticancer activity against human MCF7 cells assessed as inhibition of cell growth incubated for 48 hrs by crystal violet staining based analysis; assay type: functional; details: MCF7, 48 h
[7] = Octanol-water partition coefficient, logP of the compound; assay type: physicochemical
[8] = test system: A549/CDDP; test: Anticancer activity against human A549/DDP cells assessed as inhibition of cell growth incubated for 48 hrs by crystal violet staining based analysis; assay type: functional

Compound | IC50 [1] | IC50 [2] | Kd [3] | IC50 [5] | IC50 [6] | logP [7] | IC50 [8] | IC50 [4]
Cc1ccc(CNS(=O)(=O)c2ccc3c4c(cccc24)C(=O)N(CCN2CCCCC2)C3=O)cc1 | 10.7 µM | 4.8 µM | 20.9 µM | 7.29 µM | 4.55 µM | – | – | 9.09 µM
O=C1c2cccc3c(S(=O)(=O)NCc4ccc(F)cc4)ccc(c23)C(=O)N1CCN1CCCCC1 | 8.53 µM | 4.28 µM | 3.95 µM | 5.43 µM | 9.62 µM | – | – | 1.76 µM
COc1ccc(CNS(=O)(=O)c2ccc3c4c(cccc24)C(=O)N(CCN2CCCC2)C3=O)cc1 | 5.19 µM | 5.37 µM | 16.8 µM | 4.04 µM | 10.3 µM | – | – | 8.6 µM
Cc1ccc(CNS(=O)(=O)c2ccc3c4c(cccc24)C(=O)N(CCN(C)C)C3=O)cc1 | 6.64 µM | 12.5 µM | 14.2 µM | 7.4 µM | 10.5 µM | – | – | 5.89 µM
O=C1c2cccc3c(Sc4ccc([N+](=O)[O-])cc4)ccc(c23)C(=O)N1CCN1CCCC1 | 12.2 µM | 15.6 µM | 15.4 µM | 11.2 µM | 10.8 µM | 4.26 | > 20 µM | 9.23 µM
COc1ccc(CNS(=O)(=O)c2ccc3c4c(cccc24)C(=O)N(CCN2CCCCC2)C3=O)cc1 | 20.5 µM | 5 µM | 20.1 µM | 8.1 µM | 18.2 µM | – | – | 4.51 µM
CN(C)CCN1C(=O)c2cccc3c(S(=O)(=O)NCc4ccc(C(F)(F)F)cc4)ccc(c23)C1=O | 7.42 µM | 8.28 µM | 5.26 µM | 5.95 µM | 6.24 µM | – | – | 2.57 µM
CN(C)CCN1C(=O)c2cccc3c(S(=O)(=O)NCc4ccccc4F)ccc(c23)C1=O | 2.95 µM | 10.8 µM | 2.79 µM | 5.46 µM | 5.38 µM | – | – | 3.86 µM

Now from value to molecule, other results behind:

IC50 [1] | IC50 [2] | Kd [3] | IC50 [5] | IC50 [6] | logP [7] | IC50 [8] | Compound | IC50 [4]
12 µM | 8.17 µM | 2.03 µM | 5.16 µM | 15.4 µM | – | – | O=C1c2cccc3c(S(=O)(=O)NCc4ccccc4)ccc(c23)C(=O)N1CCN1CCCCC1 | 2.75 µM
4.22 µM | 4.77 µM | 7.36 µM | 3.38 µM | 5.01 µM | – | – | O=C1c2cccc3c(S(=O)(=O)NCc4ccc(C(F)(F)F)cc4)ccc(c23)C(=O)N1CCN1CCCC1 | 4.99 µM
– | – | 0.9 µM | – | – | – | – | CC[C@@H]1C(=O)N(C)c2cnc(Nc3ccc(C(=O)N[C@H]4CC[C@H](N5CCN(CC6CC6)CC5)CC4)cc3OC)nc2N1C(C)C [VOLASERTIB] | –
3.98 µM | 8.25 µM | 17.3 µM | 4.17 µM | 6.75 µM | – | – | Cc1ccc(CNS(=O)(=O)c2ccc3c4c(cccc24)C(=O)N(CCN2CCCC2)C3=O)cc1 | 5.53 µM
9.21 µM | 4.29 µM | 4.24 µM | 5.56 µM | 16.9 µM | – | – | O=C1c2cccc3c(S(=O)(=O)NCc4ccc(C(F)(F)F)cc4)ccc(c23)C(=O)N1CCN1CCCCC1 | 8.19 µM
7.05 µM | 17.6 µM | 19.2 µM | 4.96 µM | 10.3 µM | – | – | O=C1c2cccc3c(S(=O)(=O)NCc4ccccc4)ccc(c23)C(=O)N1CCN1CCCC1 | 4.07 µM
3.11 µM | 9.77 µM | 17.5 µM | 4.98 µM | 7.29 µM | – | – | CN(C)CCN1C(=O)c2cccc3c(S(=O)(=O)NCc4cccc(F)c4)ccc(c23)C1=O | 2.97 µM
4.99 µM | 9.37 µM | 8.06 µM | 6.44 µM | 10.2 µM | – | – | COc1ccc(CNS(=O)(=O)c2ccc3c4c(cccc24)C(=O)N(CCN(C)C)C3=O)cc1 | 5.31 µM
4.5 µM | 2.8 µM | 2.15 µM | 3.41 µM | 3.29 µM | – | – | O=C1c2cccc3c(S(=O)(=O)NCc4ccc(F)cc4)ccc(c23)C(=O)N1CCN1CCCC1 | 2.51 µM
1.8 µM | 11.5 µM | 16.8 µM | 3.71 µM | 14.7 µM | – | – | CN(C)CCN1C(=O)c2cccc3c(S(=O)(=O)NCc4ccccc4)ccc(c23)C1=O | 7.11 µM
